pEC50: −log10 of the molar value. Read-outs that look alike come from different tables or passages of the source. *1 amine or outer side, *2 acyl side, *3 side chain or, on linkers, in order; H or OH if unused. Where a SMILES comes first, the peptide text is derived from it. Side-chain parts run from the residue outwards. [ ]: non-standard residue; d: D form. The star is where a group is joined. Isobutyryl(2-(3-CN-5-F-Ph)) = CC(C)(C(=O)*)c1cc(F)cc(C#N)c1; C20 diacid = O=C(O)CCCCCCCCCCCCCCCCCCC(=O)*; Phenylacetyl(3-Cl) = O=C(Cc1cccc(Cl)c1)*; β2hAla(2S) = C[C@@H](CN[*:1])C(=O)[*:2]; γGlu = O=C(O)[C@H](CCC(=O)[*:2])N[*:1]; β2hAla(R) = C[C@H](CN[*:1])C(=O)[*:2]; Phe(2-F) = N[C@@H](Cc1ccccc1F)C(=O)O; X60 = O=C(C1(c2cccnc2)CCCC1)*; d(β3hA) = C[C@@H](N)CC(=O)O; AEEA = NCCOCCOCC(=O)O; Aib = CC(C)(N)C(=O)O; βAla = NCCC(=O)O
Experiments:
Format in all cases: cell-based
GLP-1 receptor [1] = target: T1, GLP-1 receptor (Homo sapiens, UniProt P43220); test: HitHunter cAMP assay, GLP-1 receptor; settings: for Emax: read-out: Emax GLP-1R
T1 sequence (P43220 24-463): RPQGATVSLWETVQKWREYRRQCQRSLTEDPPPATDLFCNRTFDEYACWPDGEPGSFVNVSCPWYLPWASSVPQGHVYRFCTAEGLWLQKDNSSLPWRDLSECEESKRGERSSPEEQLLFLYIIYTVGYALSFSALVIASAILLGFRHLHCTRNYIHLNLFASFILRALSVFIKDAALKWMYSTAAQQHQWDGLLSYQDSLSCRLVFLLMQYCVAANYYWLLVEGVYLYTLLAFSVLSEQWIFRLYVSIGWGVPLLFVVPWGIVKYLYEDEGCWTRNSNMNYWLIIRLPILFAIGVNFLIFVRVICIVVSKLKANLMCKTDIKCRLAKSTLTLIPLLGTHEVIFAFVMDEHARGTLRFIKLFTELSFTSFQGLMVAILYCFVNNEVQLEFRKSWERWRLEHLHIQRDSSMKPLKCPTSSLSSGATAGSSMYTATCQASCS

GIP receptor [2] = target: T2, GIP receptor (Homo sapiens, UniProt P48546); test: HitHunter cAMP assay, GIP receptor; settings: for Emax: read-out: Emax GIP-1R
T2 sequence (P48546 22-466): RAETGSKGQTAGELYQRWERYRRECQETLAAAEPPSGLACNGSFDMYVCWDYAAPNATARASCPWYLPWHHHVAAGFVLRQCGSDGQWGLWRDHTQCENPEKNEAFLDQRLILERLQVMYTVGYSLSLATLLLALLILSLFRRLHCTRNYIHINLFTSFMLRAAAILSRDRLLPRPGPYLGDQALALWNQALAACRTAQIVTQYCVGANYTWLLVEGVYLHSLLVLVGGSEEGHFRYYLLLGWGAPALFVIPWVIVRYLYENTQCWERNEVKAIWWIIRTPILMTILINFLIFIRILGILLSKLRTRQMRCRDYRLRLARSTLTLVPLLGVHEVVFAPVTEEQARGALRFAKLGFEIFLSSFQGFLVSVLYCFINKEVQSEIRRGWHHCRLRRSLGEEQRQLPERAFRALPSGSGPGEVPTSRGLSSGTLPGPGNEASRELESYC

GIP receptor [3] = target: T2, GIP receptor; test: PathHunter β-arrestin assay, GIP receptor; set-up: host or cells: PathHunter CHO-K1 GIPR β-Arrestin Cell Line
GLP-1 receptor [4] = target: T1, GLP-1 receptor; test: PathHunter β-arrestin assay, GLP-1 receptor; set-up: host or cells: PathHunter CHO-K1 GLP1R β-Arrestin Cell Line
[5] = CHO cells stably expressing human GLP-1 receptor, cAMP accumulation, 30 min, read-out: EC50 GLP-1R
[6] = CHO cells, cAMP, normalized to maximum signal from GLP-1 (high) and DMSO (low)
[7] = CHO cells stably expressing GIP receptor, cAMP accumulation, 30 min, read-out: EC50 GIP-1R
[8] = CHO cells, cAMP, normalized to maximum signal from GIP (high) and DMSO (low)
[9] = β-arrestin-2 recruitment, PathHunter CHO-K1 GIPR β-Arrestin Cell Line, 90 min at 37° C., normalized to GIP, read-out: GIPR β Arrestin EC50
[10] = β-arrestin-2 recruitment, PathHunter CHO-K1 GLP1R β-Arrestin Cell Line, 90 min at 37° C., normalized to GLP-1, read-out: GLP-1R β Arrestin EC50

## CC[C@H](C)[C@H](NC(=O)[C@H](CC(C)C)NC(=O)[C@H](Cc1c[nH]c2ccccc12)NC(=O)[C@H](CCC(N)=O)NC(=O)[C@@H](NC(=O)[C@H](Cc1ccccc1)NC(=O)[C@H](C)NC(=O)[C@H](CCCCNC(=O)COCCOCCNC(=O)COCCOCCNC(=O)CC[C@H](NC(=O)CCCCCCCCCCCCCCCCCCC(=O)O)C(=O)O)NC(=O)[C@H](CCC(N)=O)NC(=O)[C@H](C)NC(=O)[C@@H](NC(=O)[C@H](CCCCN)NC(=O)[C@H](CC(=O)O)NC(=O)[C@H](CC(C)C)NC(=O)C(C)(C)NC(=O)[C@@H](NC(=O)[C@H](CO)NC(=O)[C@H](Cc1ccc(O)cc1)NC(=O)[C@H](CC(=O)O)NC(=O)[C@H](CO)NC(=O)[C@@H](NC(=O)[C@H](Cc1ccccc1)NC(=O)[C@@H](NC(=O)CNC(=O)[C@H](CCC(=O)O)NC(=O)C[C@@H](C)NC(=O)C(C)(C)c1cc(F)cc(C#N)c1)[C@@H](C)O)[C@@H](C)O)[C@@H](C)CC)[C@@H](C)CC)C(C)C)C(=O)N[C@@H](C)C(=O)NCC(=O)NCC(=O)N1CCC[C@H]1C(=O)N[C@@H](CO)C(=O)N[C@@H](CO)C(=O)NCC(=O)N[C@@H](C)C(=O)N1CCC[C@H]1C(=O)N1CCC[C@H]1C(=O)N1CCC[C@H]1C(=O)N[C@@H](CO)C(N)=O [Compound 223] ({Isobutyryl(2-(3-CN-5-F-Ph))}-[d(β3hA)]EGTFTSDYSI[Aib]LDKIAQK([AEEA-AEEA-γGlu-C20 diacid])AFVQWLIAGGPSSGAPPPS-NH2)
GLP-1 receptor [1]; [5]
  pEC50: 7.00 to 8.00
GLP-1 receptor [1]; [6]
  Emax: 96%
GIP receptor [2]; [7]
  pEC50: 6.00 to 7.00
GIP receptor [2]; [8]
  Emax: 42%
GIP receptor [3]; [9]
  pEC50: < 6.00
GLP-1 receptor [4]; [10]
  pEC50: < 6.00

## CC[C@H](C)[C@H](NC(=O)[C@H](CC(C)C)NC(=O)[C@H](Cc1c[nH]c2ccccc12)NC(=O)[C@H](CCC(N)=O)NC(=O)[C@@H](NC(=O)[C@H](Cc1ccccc1)NC(=O)[C@H](C)NC(=O)[C@H](CCCCNC(=O)COCCOCCNC(=O)COCCOCCNC(=O)CC[C@H](NC(=O)CCCCCCCCCCCCCCCCCCC(=O)O)C(=O)O)NC(=O)[C@H](CCC(N)=O)NC(=O)[C@H](C)NC(=O)[C@@H](NC(=O)[C@H](CCCCN)NC(=O)[C@H](CC(=O)O)NC(=O)[C@H](CC(C)C)NC(=O)C(C)(C)NC(=O)[C@@H](NC(=O)[C@H](CO)NC(=O)[C@H](Cc1ccc(O)cc1)NC(=O)[C@H](CC(=O)O)NC(=O)[C@H](CO)NC(=O)[C@@H](NC(=O)[C@H](Cc1ccccc1)NC(=O)[C@@H](NC(=O)CNC(=O)[C@H](CCC(=O)O)NC(=O)[C@@H](C)CNC(=O)C(C)(C)c1cc(F)cc(C#N)c1)[C@@H](C)O)[C@@H](C)O)[C@@H](C)CC)[C@@H](C)CC)C(C)C)C(=O)N[C@@H](C)C(=O)NCC(=O)NCC(=O)N1CCC[C@H]1C(=O)N[C@@H](CO)C(=O)N[C@@H](CO)C(=O)NCC(=O)N[C@@H](C)C(=O)N1CCC[C@H]1C(=O)N1CCC[C@H]1C(=O)N1CCC[C@H]1C(=O)N[C@@H](CO)C(N)=O [Compound 224] ({Isobutyryl(2-(3-CN-5-F-Ph))}-[β2hAla(2S)]EGTFTSDYSI[Aib]LDKIAQK([AEEA-AEEA-γGlu-C20 diacid])AFVQWLIAGGPSSGAPPPS-NH2)
GLP-1 receptor [1]; [5]
  pEC50: 9.00 to 10.00
GLP-1 receptor [1]; [6]
  Emax: 102%
GIP receptor [2]; [7]
  pEC50: 8.00 to 9.00
GIP receptor [2]; [8]
  Emax: 103%
GIP receptor [3]; [9]
  pEC50: > 6.00
GLP-1 receptor [4]; [10]
  pEC50: < 6.00

## CC[C@H](C)[C@H](NC(=O)[C@H](CC(C)C)NC(=O)[C@H](Cc1c[nH]c2ccccc12)NC(=O)[C@H](CCC(N)=O)NC(=O)[C@@H](NC(=O)[C@H](Cc1ccccc1)NC(=O)[C@H](C)NC(=O)[C@H](CCCCNC(=O)COCCOCCNC(=O)COCCOCCNC(=O)CC[C@H](NC(=O)CCCCCCCCCCCCCCCCCCC(=O)O)C(=O)O)NC(=O)[C@H](CCC(N)=O)NC(=O)[C@H](C)NC(=O)[C@@H](NC(=O)[C@H](CCCCN)NC(=O)[C@H](CC(=O)O)NC(=O)[C@H](CC(C)C)NC(=O)C(C)(C)NC(=O)[C@@H](NC(=O)[C@H](CO)NC(=O)[C@H](Cc1ccc(O)cc1)NC(=O)[C@H](CC(=O)O)NC(=O)[C@H](CO)NC(=O)[C@@H](NC(=O)[C@H](Cc1ccccc1)NC(=O)[C@@H](NC(=O)CNC(=O)[C@H](CCC(=O)O)NC(=O)[C@H](C)CNC(=O)C(C)(C)c1cc(F)cc(C#N)c1)[C@@H](C)O)[C@@H](C)O)[C@@H](C)CC)[C@@H](C)CC)C(C)C)C(=O)N[C@@H](C)C(=O)NCC(=O)NCC(=O)N1CCC[C@H]1C(=O)N[C@@H](CO)C(=O)N[C@@H](CO)C(=O)NCC(=O)N[C@@H](C)C(=O)N1CCC[C@H]1C(=O)N1CCC[C@H]1C(=O)N1CCC[C@H]1C(=O)N[C@@H](CO)C(N)=O [Compound 225] ({Isobutyryl(2-(3-CN-5-F-Ph))}-[β2hAla(R)]EGTFTSDYSI[Aib]LDKIAQK([AEEA-AEEA-γGlu-C20 diacid])AFVQWLIAGGPSSGAPPPS-NH2)
GLP-1 receptor [1]; [5]
  pEC50: 9.00 to 10.00
GLP-1 receptor [1]; [6]
  Emax: 102%
GIP receptor [2]; [7]
  pEC50: 7.00 to 8.00
GIP receptor [2]; [8]
  Emax: 98%
GIP receptor [3]; [9]
  pEC50: < 6.00
GLP-1 receptor [4]; [10]
  pEC50: < 6.00

## CC[C@H](C)[C@H](NC(=O)[C@H](CC(C)C)NC(=O)[C@H](Cc1c[nH]c2ccccc12)NC(=O)[C@H](CCC(N)=O)NC(=O)[C@@H](NC(=O)[C@H](Cc1ccccc1)NC(=O)[C@H](C)NC(=O)[C@H](CCCCNC(=O)COCCOCCNC(=O)COCCOCCNC(=O)CC[C@H](NC(=O)CCCCCCCCCCCCCCCCCCC(=O)O)C(=O)O)NC(=O)[C@H](CCC(N)=O)NC(=O)[C@H](C)NC(=O)[C@@H](NC(=O)[C@H](CCCCN)NC(=O)[C@H](CC(=O)O)NC(=O)[C@H](CC(C)C)NC(=O)C(C)(C)NC(=O)[C@@H](NC(=O)[C@H](CO)NC(=O)[C@H](Cc1ccc(O)cc1)NC(=O)[C@H](CC(=O)O)NC(=O)[C@H](CO)NC(=O)[C@@H](NC(=O)[C@H](Cc1ccccc1)NC(=O)[C@@H](NC(=O)CNC(=O)[C@H](CCC(=O)O)NC(=O)CCNC(=O)CNC(=O)Cc1cccc(Cl)c1)[C@@H](C)O)[C@@H](C)O)[C@@H](C)CC)[C@@H](C)CC)C(C)C)C(=O)N[C@@H](C)C(=O)NCC(=O)NCC(=O)N1CCC[C@H]1C(=O)N[C@@H](CO)C(=O)N[C@@H](CO)C(=O)NCC(=O)N[C@@H](C)C(=O)N1CCC[C@H]1C(=O)N1CCC[C@H]1C(=O)N1CCC[C@H]1C(=O)N[C@@H](CO)C(N)=O [Compound 230] ({Phenylacetyl(3-Cl)}-G[βAla]EGTFTSDYSI[Aib]LDKIAQK([AEEA-AEEA-γGlu-C20 diacid])AFVQWLIAGGPSSGAPPPS-NH2)
GLP-1 receptor [1]
  pEC50: 8.00 to 9.00
GLP-1 receptor [1]; CHO
  Emax: 99%
GIP receptor [2]
  pEC50: 7.00 to 8.00
GIP receptor [2]; CHO
  Emax: 96%
GIP receptor [3]
  pEC50: < 6.00
GLP-1 receptor [4]
  pEC50: < 6.00

## CC[C@H](C)[C@H](NC(=O)[C@H](CC(C)C)NC(=O)[C@H](Cc1c[nH]c2ccccc12)NC(=O)[C@H](CCC(N)=O)NC(=O)[C@@H](NC(=O)[C@H](Cc1ccccc1)NC(=O)[C@H](C)NC(=O)[C@H](CCCCNC(=O)COCCOCCNC(=O)COCCOCCNC(=O)CC[C@H](NC(=O)CCCCCCCCCCCCCCCCCCC(=O)O)C(=O)O)NC(=O)[C@H](CCC(N)=O)NC(=O)[C@H](C)NC(=O)[C@@H](NC(=O)[C@H](CCCCN)NC(=O)[C@H](CC(=O)O)NC(=O)[C@H](CC(C)C)NC(=O)C(C)(C)NC(=O)[C@@H](NC(=O)[C@H](CO)NC(=O)[C@H](Cc1ccc(O)cc1)NC(=O)[C@H](CC(=O)O)NC(=O)[C@H](CO)NC(=O)[C@@H](NC(=O)[C@H](Cc1ccccc1F)NC(=O)[C@@H](NC(=O)CNC(=O)[C@H](CCC(=O)O)NC(=O)CCNC(=O)C1(c2cccnc2)CCCC1)[C@@H](C)O)[C@@H](C)O)[C@@H](C)CC)[C@@H](C)CC)C(C)C)C(=O)N[C@@H](C)C(=O)NCC(=O)NCC(=O)N1CCC[C@H]1C(=O)N[C@@H](CO)C(=O)N[C@@H](CO)C(=O)NCC(=O)N[C@@H](C)C(=O)N1CCC[C@H]1C(=O)N1CCC[C@H]1C(=O)N1CCC[C@H]1C(=O)N[C@@H](CO)C(N)=O [Compound 231] ({X60-βAla}-EGT[Phe(2-F)]TSDYSI[Aib]LDKIAQK([AEEA-AEEA-γGlu-C20 diacid])AFVQWLIAGGPSSGAPPPS-NH2)
GLP-1 receptor [1]; [5]
  pEC50: 9.00 to 10.00
GLP-1 receptor [1]; [6]
  Emax: 111%
GIP receptor [2]; [7]
  pEC50: 9.00 to 10.00
GIP receptor [2]; [8]
  Emax: 110%
GIP receptor [3]; [9]
  pEC50: < 6.00
GLP-1 receptor [4]; [10]
  pEC50: < 6.00

— patent publication US12281149B2, “Modulators of G-protein coupled receptors” (priority 2021, dated 2025)
